In one data set the test system is mice. As to the kind of experiment: Protective action on the mortality by hypobaric hypoxia. The class given is in vivo. The conditions noted are these: intravenous route, 25.6 mg/kg; for Survival time: pressure reduced until 190 mm Hg; for % Variation: survival time versus controls.
The nature of data set [1]: Acute toxicity in mice (LD50, Lichtfield and Wilcoxon). The conditions noted are these: mouse, in vivo, ip.
The subject of data set [2] is smooth musculature of the isolated ileum of rabbits, made hypertonic by serotonin. As to the kind of experiment: Myorelaxing effect on isolated ileum made hypertonic by serotonin. The conditions noted are these: isolated rabbit ileum, relative to vincamine. The source says:
(§1) The myorelaxing effect of MR 711 and vincamine has been investigated on the smooth musculature of the isolated ileum of rabbits, made hypertonic by sodium ions or serotonin.

For data set [3], the system named is smooth musculature of the isolated ileum of rabbits, made hypertonic by sodium ions. The data set can be described thus: Myorelaxing effect on isolated ileum made hypertonic by sodium ions. The conditions noted are these: isolated rabbit ileum, relative to vincamine.
From the text: as §1

The values below come from patent EP0052238B1, “A new vincamine derivative, a method for its preparation and pharmaceutical compositions containing it” (MEDEA RESEARCH S.r.l., priority 1980, dated 1982).

By LD50 is commonly meant the dose at which mortality reaches 50%. Low values mean greater toxicity, high ones lower toxicity. With `CC[C@]12CCCN3CCc4c(n(c5ccccc45)[C@@](O)(C(=O)OC)C1)[C@@H]32` [Vincamine], in the data set on mice, the Survival time is 213.3 ± 37.9 s and the “% Variation” value is on record as “+194%”. Besides, the median lethal dose (LD50) in data set [1] was determined as 195 mg/kg.

Turning to `CCC12C=C(C(=O)OCOC)n3c4c(c5ccccc53)CCN(CCC1)C42` (centres unmarked) [MR 711, 13a-ethyl-2,3,5,6,13a,13b-hexahydro-1 H-indolo[3,2,1-de]pyrido[3,2,1-ij]-[1,5]naphthyridine-12-methoxymethylcarboxylate], the “activity in inhibiting the serotonin induced contractions, higher than the corresponding activity displayed by vincamine” value in data set [2] came to 70%. Also, in the data set with mice, the Survival time was determined as 262.9 ± 31.4 s and the “% Variation” value is “+263%”. In addition, in data set [3], the “activity in inhibiting the sodium ions induced contractions, higher than the corresponding activity displayed by vincamine” value came out at 46%. The molecule also yielded a median lethal dose (LD50) in data set [1] of 580 mg/kg.
